Read-outs that look alike come from different tables or passages of the source.
Key:
AML cell lines = assay: apoptosis in AML cell lines, acridine orange/ethidium bromide; format: cell-based, human
Method: Apoptosis Assay: Cells were treated for 24, 48 or 72 h with vehicle (DMSO) or inhibitors as indicated. Following staining with Acridine Orange and Ethidium Bromide (1:1 mix of 100 µg/ml), cells were visualized with a fluorescent microscope (Zeiss Axiovert 40 CFL) and counted. Percentage of apoptotic cells was determined from 200-300 cells counted in each group. The percentage of apoptotic cells was calculated as: % Apoptotic cells=(total number of cells with apoptotic nuclei/total number of cells counted)×100.

tumor HSP90 = details: for available HSP90 tumor sites occupied: 24 h
MO-91 tumors = assay: pharmacodynamic study in MO-91 xenografted tumors; format: in vivo, mice; details: post-administration of one dose
Method: Pharmacodynamic Study: Four- to 6-week-old nu/nu athymic female mice were obtained from Taconic Farms. Experiments were carried out under an Institutional Animal Care and Use Committee-approved protocol, and institutional guidelines for the proper and humane use of animals in research were followed. HEL and MO-91 cells were subcutaneously implanted in the right flank of mice using a 20-gauge needle and allowed to grow. Before administration, a solution of PU-H71-HCl was formulated in sterile PBS. For this assay, tumors were allowed to reach 6-8 mm in diameter before treatment. […] Tumors were homogenized and proteins analyzed by western blot as described above.

[1] = PU-H71 tumor concentration by LC-MS/MS; format: in vivo, mice; details: mouse, tumor (MDA-MB-468), read-out: actual tumor concentration by LC-MS/MS; for concentration at 24 h: 24 h after last dose
Description: LC-MS/MS analyses. […] Samples were reconstituted in mobile phase.

HSP90 = details: for IC50: read-out: IC50, binding to HSP90
Method: FIGS. 1A, 1B, 1C, 1D, and 1E. […] Lysate=control cell extract. FIG. 1B HSP90 from MDA-MB-468 extracts was isolated through sequential chemical- and immuno-purification steps. The amount of HSP90 in each pool was quantified by densitometry and values were normalized to an internal standard. […] Representative data of four separate repeats is presented (lower). Expression of HSP90 in the indicated cells was analyzed by Western blot (upper). […] Post-treatment cells were treated with 1 μM PU-FITC. Binding of PU-FITC to the cells was evaluated by flow cytometry and is represented as mean fluorescence intensity (MFI). TEG-FITC is shown as a non-specific binding control. CD45 vs. SSC gating was used to distinguish binding to blast or lymphocytes from the primary specimens. […] Cell viability was evaluated by annexin V/7-AAD staining 96 h post-treatment.
CD34+ cell isolation was performed using CD34 MicroBead Kit and the automated magnetic cell sorter autoMACS according to the manufacturer's instructions (Miltenyi Biotech, Auburn, CA). […] Cell viability was analyzed by flow cytometry (BD Biosciences). […] Cells were stained with CD34-APC, CD38-PE-CY7 and CD45-APC-H7 antibodies (BD Biosciences) in FACS buffer (PBS, 0.05% FBS) at 4° C. for 30 min prior to Annexin V/7-AAD staining. […] At 4 h post treatment, cells were washed twice with FACS buffer. […] At 24 h post treatment, cells were washed twice, and stained with CD34-APC (or CD34-PECy7), CD38-PE-CY7 (or CD38-PE) and CD45-APC-H7 antibodies in FACS buffer at 4° C. for 30 min prior to 7-AAD staining. At 48 h, and 96 h post treatment, cells were stained with CD34-APC (or CD34-PECy7), CD38-PE-CY7 (or CD38-PE) and CD45-APC-H7 antibodies followed by Annexin V-V450 and 7-AAD staining to measure cell viability in blast, lymphocytes and CD34+ cell populations. […] Cells were collected, washed twice, stained for 7-AAD in FACS buffer, and analyzed by flow cytometry. HSP90 staining—Cells were fixed with fixation buffer (BD Biosciences) at 4° C. for 30 min, and permeabilized in Perm Buffer III (BD Biosciences) on ice for 30 min. Cells were stained with anti-HSP90 phycoerythrin conjugate (PE) (F-8 clone, Santa Cruz Biotechnologies; CA) for 60 minutes. Cells were washed and then analyzed by flow cytometry. Normal mouse IgG2a-PE was used as isotype control.

MDA-MB-468 tumors = assay: efficacy in MDA-MB-468 xenografts; format: in vivo, mice; details: for anti-tumor effect: 75 mg/kg, 5 weeks
Method: Efficacy Studies. Mice (n=5) bearing MDA-MB-468 tumors reaching a volume of 100-150 mm^3 were treated i.p. (i.p.) using different doses and schedules, as indicated. Tumor volume was determined by measurement with Vernier calipers, and tumor volume was calculated as the product of its length×width^2×0.4. Tumor volume was expressed on indicated days as the median tumor volume±SD indicated for groups of mice. Percent (%) tumor growth inhibition values were measured on the final day of study for drug-treated compared with vehicle treated mice and are calculated as 100×{1−[(TreatedFinal day−TreatedDay 1)/(ControlFinal day−ControlDay 1)]}. Tumor regression values were determined by calculating the ratio of median tumor volumes at the time when treatment was initiated to median tumor volume on the final day of study for a given treatment group. Percent (%) tumor regression is 100×[1−(TreatedFinal day/TreatedDay 1)].

MDA-MB-468 cells = assay: MDA-MB-468 and other breast cancer cells in vitro: growth inhibition, client depletion, apoptosis

CC(C)NCCCn1c(Sc2cc3c(cc2I)OCO3)nc2c(N)ncnc21 [PU-H71]
cells undergoing apoptosis (AML cell lines; HEL, 72 h): 30% | cells undergoing apoptosis (AML cell lines; MOLM-13 and MO-91, 72 h): ~100% | cells undergoing apoptosis (AML cell lines; SKNO-1 and Kasumi-1, 72 h): 50-60% | available HSP90 tumor sites occupied (tumor HSP90; 5 mg/kg): 12.1% | available HSP90 tumor sites occupied (tumor HSP90; 25 mg/kg): 57.7% | available HSP90 tumor sites occupied (tumor HSP90; 50 mg/kg): 88.7% | available HSP90 tumor sites occupied (tumor HSP90; 75 mg/kg): 92.7% | BMAX, maximum HSP90 per gram of tumor (tumor HSP90; 24 h post-injection, one gram of tumor): 160.7×10^−3 nmols | BMAX as HSP90 molecules per gram of tumor (tumor HSP90; one gram of tumor): 960×10^11 HSP90 molecules | duration of apoptosis after one dose (MO-91 tumors): […] | concentration at 24 h ([1]; 5 mg/kg 3×week): 0.52 ± 0.13 µM | concentration at 24 h ([1]; 75 mg/kg 1×week): 5.53 ± 0.26 µM | concentration at 96 h ([1]; 75 mg/kg 1×week, 96 h after last dose): 3.09 ± 1.4 µM | EC50 (HSP90; read-out: EC50, affinity for normal blood cells, normal blood cells): […] | IC50 (HSP90; bcCML): […] | IC50 (HSP90; normal blood cells): […] | EC50 (HSP90; read-out: half relative binding affinity (EC50), AML blasts): […] | EC50 (HSP90; read-out: half relative binding affinity (EC50), CML blasts): […] | EC50 (HSP90; read-out: half relative binding affinity (EC50), K562 cells): […] | tumor volume at end of treatment (MDA-MB-468 tumors; 5 mg/kg arm): 139±66 mm^3 | tumor growth inhibition (TGI) (MDA-MB-468 tumors; 5 mg/kg i.p. 3×week, 7 weeks): 63% | tumor growth inhibition (TGI) (MDA-MB-468 tumors; 25 mg/kg i.p. 3×week, 7 weeks): 82% | tumor growth inhibition (TGI) (MDA-MB-468 tumors; 50 mg/kg i.p. 3×week, 7 weeks): 99% | regression (MDA-MB-468 tumors; 75 mg/kg i.p. 3×week, 7 weeks): 100% | anti-tumor effect (MDA-MB-468 tumors; 1×week): significant tumor growth inhibition | anti-tumor effect (MDA-MB-468 tumors; 2×week): tumor regressions | average occupancy of tumor HSP90 sites needed for tumor regression and cure (MDA-MB-468 tumors; averaged over the time of treatment): over 80% | average occupied sites that may still lead to partial response (MDA-MB-468 tumors; over the time of treatment): ≥ 15% | average tumor concentration needed for tumor regression and cure (MDA-MB-468 tumors; over the time of treatment): […] | average tumor concentration that may still lead to partial response (MDA-MB-468 tumors; over the time of treatment): […] | concentrations resulting in HSP90 inhibition (depletion of Raf-1, Akt) (MDA-MB-468 cells; MDA-MB-468, 24 h): […] | concentration required for about 50% of cells undergoing apoptosis (MDA-MB-468 cells; MDA-MB-468, 48 h): […] | concentration required for about 100% of cells undergoing apoptosis (MDA-MB-468 cells; MDA-MB-468, 48 h): […] | cells undergoing apoptosis (MDA-MB-468 cells; MDA-MB-468, >2 μM, 48 h): > 70%

— patent US12616759B2, “Uses of labeled HSP90 inhibitors” (Sloan-Kettering Institute for Cancer Research, priority 2011, dated 2026)
